Measured values as given in ChEMBL document CHEMBL3112562, “Structure-activity relationships of N-substituted 4-(trifluoromethoxy)benzamidines with affinity for GluN2B-containing NMDA receptors” (Bioorg Med Chem Lett, 2014).

Target: Glutamate receptor ionotropic, NMDA 2B (Rattus norvegicus, UniProt Q00960)
Experiment: Displacement of [3H]ifenprodil from Wistar rat GluN2B receptor after 2 hrs by liquid scintillation spectrometry

Sequence of Glutamate receptor ionotropic, NMDA 2B (Q00960 whole entry): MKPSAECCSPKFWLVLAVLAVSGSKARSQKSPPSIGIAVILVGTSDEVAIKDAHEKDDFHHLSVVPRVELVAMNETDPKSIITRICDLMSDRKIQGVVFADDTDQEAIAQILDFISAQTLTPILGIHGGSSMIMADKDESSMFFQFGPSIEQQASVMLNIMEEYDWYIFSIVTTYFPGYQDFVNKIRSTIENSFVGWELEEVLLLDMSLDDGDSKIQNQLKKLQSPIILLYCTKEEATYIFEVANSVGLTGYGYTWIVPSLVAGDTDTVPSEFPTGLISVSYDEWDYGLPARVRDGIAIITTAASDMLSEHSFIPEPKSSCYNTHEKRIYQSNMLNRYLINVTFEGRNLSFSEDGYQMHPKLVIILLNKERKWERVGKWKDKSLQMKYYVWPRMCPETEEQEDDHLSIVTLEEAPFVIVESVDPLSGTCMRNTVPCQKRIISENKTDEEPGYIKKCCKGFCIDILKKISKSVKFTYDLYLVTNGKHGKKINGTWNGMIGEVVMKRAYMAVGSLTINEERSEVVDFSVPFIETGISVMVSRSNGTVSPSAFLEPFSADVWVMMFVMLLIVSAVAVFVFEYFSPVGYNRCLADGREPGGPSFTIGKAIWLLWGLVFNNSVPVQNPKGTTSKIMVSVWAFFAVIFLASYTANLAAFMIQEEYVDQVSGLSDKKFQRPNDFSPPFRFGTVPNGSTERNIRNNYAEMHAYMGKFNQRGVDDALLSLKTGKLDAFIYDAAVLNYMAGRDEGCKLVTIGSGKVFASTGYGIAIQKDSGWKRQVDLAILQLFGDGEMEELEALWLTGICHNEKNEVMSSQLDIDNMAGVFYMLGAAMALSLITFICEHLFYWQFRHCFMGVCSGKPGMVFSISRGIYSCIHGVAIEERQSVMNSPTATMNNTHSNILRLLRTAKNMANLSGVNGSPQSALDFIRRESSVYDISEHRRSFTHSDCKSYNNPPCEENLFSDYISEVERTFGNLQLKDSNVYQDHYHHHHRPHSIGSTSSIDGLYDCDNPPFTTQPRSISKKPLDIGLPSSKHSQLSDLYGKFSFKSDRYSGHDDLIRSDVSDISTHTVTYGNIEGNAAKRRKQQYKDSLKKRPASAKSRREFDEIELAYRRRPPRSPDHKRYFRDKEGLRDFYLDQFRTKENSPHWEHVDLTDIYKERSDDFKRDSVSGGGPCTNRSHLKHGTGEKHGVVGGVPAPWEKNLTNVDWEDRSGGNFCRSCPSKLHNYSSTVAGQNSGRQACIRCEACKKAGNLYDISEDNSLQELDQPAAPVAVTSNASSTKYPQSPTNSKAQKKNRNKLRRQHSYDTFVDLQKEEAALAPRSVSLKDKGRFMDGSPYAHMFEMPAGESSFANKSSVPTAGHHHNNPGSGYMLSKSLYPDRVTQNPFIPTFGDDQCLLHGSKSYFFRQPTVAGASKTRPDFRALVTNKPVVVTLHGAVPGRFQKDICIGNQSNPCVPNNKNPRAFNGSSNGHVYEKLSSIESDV

Compound	Ki [nM]
NC(=NCc1ccccc1C(F)(F)F)c1ccc(OC(F)(F)F)cc1	8.09
COc1ccccc1C/N=C(\N)c1ccc(OC(F)(F)F)cc1	2.09
NC(=NCC12CC3CC(CC(C3)C1)C2)c1ccc(OC(F)(F)F)cc1	4810
N=C(NCC12C3C4C5C3C1C5C42)c1ccc(OC(F)(F)F)cc1 (stereo not drawn)	150
NC(=NCc1cc(F)cc(F)c1)c1ccc(OC(F)(F)F)cc1	3.58
N=C(NCc1ccc(F)c(F)c1)c1ccc(OC(F)(F)F)cc1	8.25
N=C(NCc1cccc(F)c1)c1ccc(OC(F)(F)F)cc1	2.86
N=C(NCc1ccc2c(c1)OCO2)c1ccc(OC(F)(F)F)cc1	26.3
COc1cccc(CNC(=N)c2ccc(OC(F)(F)F)cc2)c1OC	303
COc1ccc(CNC(=N)c2ccc(OC(F)(F)F)cc2)c(OC)c1	16.2
COc1ccc(OC)c(CNC(=N)c2ccc(OC(F)(F)F)cc2)c1	4.29
COc1cc(CNC(=N)c2ccc(OC(F)(F)F)cc2)cc(OC)c1	22.9
COc1cc(CN=C(N)c2ccc(OC(F)(F)F)cc2)cc(OC)c1OC	1140
